“Also recorded” adds a separate entry of the source.
How the values were obtained:
OT-I CD8 T cells = test: CD8+ T lymphocyte activation in vitro (proliferation, IFNγ) in co-culture with cOva-expressing tumor cells and BMDM; type: cell-based, mice; settings: for interferon gamma (IFNγ) production in OT-I CD8 T cells / OT-I CD8 T cell proliferation: SSI-4 1000 nM
Experimental: (§1) CRT behaves as a pro-phagocytic signal. The effect of SSI-4 treatment on tumor cell phagocytosis by bone marrow-derived macrophages (BMDM) in vitro was determined. SSI-4 (1000 nM) induced the highest level of phagocytosis in both TUBO and E0771-E2 cells (5 and 13%, respectively) (FIG. 2a). […] Downstream activation of T lymphocytes is dependent on the successful maturation and presentation of antigen by antigen-presenting cells such as macrophages (Woo 2015). SSI-4 driven activation of BMDMs in vitro was evaluated by measuring antigen presentation of chicken ovalbumin (cOva) by MHC class I receptors on BMDM after co-culturing them with cOva-expressing tumor cells. […] CD8+ T lymphocyte activation was evaluated in vitro using splenic T cells derived from OT-I transgenic mice which recognize ovalbumin residues 257-264 in the context of H2Kb. Proliferation and interferon gamma (IFNγ) production was measured in T lymphocytes co-cultured with both cOva-expressing tumor cells and BMDM treated with SSI-4. In addition, in order to evaluate whether the effects of SSI-4 on T lymphocyte activation were direct or mediated through a tumor-specific mechanism, concurrent analysis in SSI-4 treated T lymphocytes alone and T lymphocytes co-cultured with BMDM only was performed.

OT-II CD4 T cells = test: OT-II CD4 T cell proliferation in co-culture; type: cell-based; settings: for OT-II CD4 T cell proliferation: SSI-4 1000 nM
[1] = system: E0771 TNBC breast cancer cells; test: Tumor cell phagocytosis in vitro; type: cell-based
Experimental: as §1

TUBO tumors [2] = test: TUBO HER2-positive tumors, SSI-4, PD-1 blockade and combination, CD8 depletion; settings: SSI-4 monotherapy
Experimental: Materials and methods: The checkpoint inhibitor used was a mouse anti-PD-1 that was purchased from BioXCell (catalog #BE0146). The checkpoint inhibitor was administered at 100 μg/dose (5 mg/kg) by intraperitoneal (IP) injection.
(§3) To negate the effects of PD-L1 upregulation, the combination of PD-1 antibody-mediated blockade, the receptor for PD-L1, and SSI-4, was tested.

TUBO cells [3] = test: Antigen presentation of cOva by MHC class I on BMDM co-cultured with cOva-expressing tumor cells; type: cell-based, murine
Experimental: as §1

E0771-E2 cells [4] = test: as above; type: cell-based, murine
Experimental: as §1

TUBO tumors [5] = test: TUBO orthotopic mammary fat pad tumors, SSI-4 monotherapy; type: in vivo, BALB/c mice
Experimental: SSI-4 mediated immunomodulation in vivo was evaluated. TUBO cells were injected orthotopically into the mammary fat pad of BALB/c mice. Animals received either sham or SSI-4 (180 mg/kg) orally (continuous) when tumor burden reached 50-100 mm^3. […] Tumor tissue was harvested 14 days after treatment onset for analysis.
As SSI-4 treatment of tumor cells enhances the antigen presenting capabilities of APCs in vitro, tumor-associated recruitment of professional phagocytes in vivo including macrophages (MP) and dendritic cells (DC) was evaluated. The ratio of tumor leukocyte recruitment by comparing the ratio of cluster of differentiation 45 antigen (CD45) positive to negative cells sorted from dissociated tumor tissue within control and SSI-4 treated mice was determined. Results indicated a 10% increase in the number of tumor-associated leukocytes within SSI-4 treated animals (FIG. 3f). Next, tumor sections were stained for F4/80, a macrophage (MP) marker. […] To determine intra-tumor dendritic cell infiltration, tumors were dissociated and analyzed via flow cytometry for DCs based on CD45^+MHCII^+CD11c^hi expression. […] As tumor-associated macrophage (TAM) cells can be correlated with either a tumor-suppressive or pro-inflammatory phenotype, we sorted this population identified by MHCII^+CD11c^loF4/80^+ based on the polarization markers interleukin-1β (IL-1β) and IL-10, comparing the expression profiles from both treatment groups as well as mammary tissue extracted from non-tumor bearing mice.
SSI-4 mediated APC activation could augment T lymphocyte infiltration and activation. […] The maturation status of T lymphocytes from CD3+ cells isolated from the spleen of treated animals by comparing the ratio of CD44 to CD62L expression in either CD4 or CD8 T-cells was examined. […] The activation status of T lymphocytes isolated from digested tumors was also assessed. […] Granzyme B-positive CD8 T-cells were also enriched in SSI-4 treated tumors (FIG. 4f), another marker for activated CD8+ T lymphocytes.

E0771-E2 tumors = test: E0771-E2 tumor bearing mice, SSI-4, PD-1 blockade and combination
Experimental: The checkpoint inhibitor was administered at 100 μg/dose (5 mg/kg) by intraperitoneal (IP) injection.
as §3
Tumor-infiltrating (TI) leukocytes and lymphocytes were assessed by multicolor flow cytometry on dissociated treated tumor tissue extracted from E0771-E2 bearing mice on day 27 of the study. […] 5G: To determine whether anti-tumor activity of SSI-4/PD-1 combination therapy is dependent on cytotoxic CD8 T lymphocyte activity, CD8 depletion studies were performed in mice receiving either placebo or combination therapy.

TUBO cells [6] = test: Tumor cell phagocytosis by bone marrow-derived macrophages (BMDM) in vitro; type: cell-based, murine
Experimental: as §1

E0771-E2 cells [7] = test: as above; type: cell-based, murine
Experimental: as §1

[8] = system: live tumor cells (HER2-positive and TNBC breast cancer); test: Plasma membrane translocation of calreticulin, flow cytometry on live tumor cells; type: cell-based, murine; settings: 48 hour treatment
Experimental: Significance shown for 1000 nM dose (anova).
(§2) SSI-4 induces ER stress in tumor cells. […] ER stress can provoke a therapeutically relevant adaptive immune response against malignant cells through the emission of immunostimulatory signals, or damage-associated molecular patterns (DAMPs) such as heat shock proteins and translocation of calreticulin (CRT) to the plasma membrane (17). In particular, phosphorylation of eIF2a has been reported to mediate CRT translocation (20) which is correlated with the induction of immunogenic cell death (ICD) and favorable disease outcome in a variety of malignancies (17).

[9] = system: 4T1 TNBC breast cancer cells; test: Tumor cell phagocytosis in vitro; type: cell-based; settings: 4T1 cells
[10] = system: TUBO, E0771-E2, and N202 tumor cells; test: ER stress activation in tumor cells (p-eIF2α Ser51, CHOP levels); type: cell-based, murine; settings: SSI-4 10-1000 nM
Description: as §2

[11] = SSI-4 treated T lymphocytes alone or T lymphocyte-BMDM co-cultures
[12] = splenic CD3+ cells, CD44 to CD62L
[13] = tumor tissue 14 days after treatment onset

Compound: CNC(=O)c1ccnc(NC(=O)N2CCC(Oc3ccccc3Cl)CC2)c1 [SSI-4, 2-{[4-(2-Chlorophenoxy)piperidine-1-carbonyl]amino}-N-methylpyridine-4-carboxamide]
- SSI-4 enhanced IFNγ production with CRT neutralization (OT-I CD8 T cells; E0771-E2 cells): mild (n.s.) decrease
- SSI-4 enhanced OT-I CD8 T cell proliferation with adjuvant CRT neutralization (OT-I CD8 T cells; E0771-E2 cells): inhibited
- SSI-4 enhanced IFNγ production with adjuvant CRT neutralization (OT-I CD8 T cells; MMTV-neu cells): inhibited; also recorded: abrogate
- SSI-4 enhanced OT-I CD8 T cell proliferation with adjuvant CRT neutralization (OT-I CD8 T cells; MMTV-neu cells): inhibited; also recorded: abrogate
- interferon gamma (IFNγ) production in OT-I CD8 T cells (OT-I CD8 T cells; triple culture with E0771-E2): significantly enhanced; also recorded: potently induce
- OT-I CD8 T cell proliferation (OT-I CD8 T cells; triple culture with E0771-E2 tumor cells and macrophages): significantly enhanced; also recorded: potently induce
- interferon gamma (IFNγ) production in OT-I CD8 T cells (OT-I CD8 T cells; triple culture with MMTV-neu): significantly enhanced; also recorded: potently induce
- OT-I CD8 T cell proliferation (OT-I CD8 T cells; triple culture with MMTV-neu tumor cells and macrophages): significantly enhanced; also recorded: potently induce
- IFNγ production without tumor cells (OT-I CD8 T cells; [11]): No significant changes
- T lymphocyte proliferation without tumor cells (OT-I CD8 T cells; [11]): could not induce T cell proliferation; also recorded: No significant changes
- T cell proliferation with tumor cells bearing empty vector (EV), no cOVA antigen (OT-I CD8 T cells; SSI-4 treatment): could not similarly stimulate T cell proliferation
- SSI-4 enhanced OT-II CD4 T cell proliferation with adjuvant CRT neutralization (OT-II CD4 T cells; E0771-E2): inhibited
- SSI-4 enhanced OT-II CD4 T cell proliferation with adjuvant CRT neutralization (OT-II CD4 T cells; MMTV-neu): inhibited
- OT-II CD4 T cell proliferation (OT-II CD4 T cells; E0771-E2): significantly enhanced
- OT-II CD4 T cell proliferation (OT-II CD4 T cells; MMTV-neu): significantly enhanced
- SSI-4 induced phagocytosis with adjuvant CRT neutralization [1]: reversed
- level of phagocytosis ([1]; SSI-4 1000 nM): 9.4%
- improved median survival compared to PD-1 monotherapy (TUBO tumors [2]): ~35%
- improved median survival compared to sham (TUBO tumors [2]): approximately 37%
- SSI-4 enhanced antigen presentation with adjuvant CRT neutralization (TUBO cells [3]): inhibited
- antigen presentation (TUBO cells [3]; SSI-4 100 nM): 8.5%
- antigen presentation (TUBO cells [3]; SSI-4 1000 nM): 8.5%
- SSI-4 enhanced antigen presentation with adjuvant CRT neutralization (E0771-E2 cells [4]): inhibited
- antigen presentation (E0771-E2 cells [4]; SSI-4 100 nM): 5%
- antigen presentation (E0771-E2 cells [4]; SSI-4 1000 nM): 5%
- number of CD4+ tumor-infiltrating populations (TUBO tumors [5]; IHC of tumor sections): significant increase
- number of CD8+ tumor-infiltrating populations (TUBO tumors [5]; IHC of tumor sections): significant increase
- programmed death ligand-1 (PD-L1) expression in tumor (TUBO tumors [5]; IHC of tumor sections, TUBO tumor bearing mice): induces
- pro-inflammatory cytokine (IL-1β) expression in tumor-associated macrophages (TUBO tumors [5]; MHCII+CD11cloF4/80+ cells): increased expression of pro-inflammatory cytokines; also recorded: significant increase in IL-1β
- overall survival (TUBO tumors [5]; SSI-4 180 mg/kg orally (continuous) vs sham): appreciable increase in overall survival
- tumor progression (TUBO tumors [5]; SSI-4 180 mg/kg orally (continuous) vs sham, 180 mg/kg): slower tumor progression; also recorded: tumor progression invariably occurred
- tumor sizes at 30 days after onset of therapy (TUBO tumors [5]; SSI-4 180 mg/kg orally (continuous), when control animals reached endpoint): markedly smaller tumor sizes
- effector CD4 and CD8 T lymphocytes identified by IFNγ (TUBO tumors [5]; T lymphocytes from digested tumors): markedly increased
- increase in the number of tumor-associated leukocytes (CD45) (TUBO tumors [5]; dissociated tumor tissue, SSI-4 vs control): 10%
- number of intra-tumor dendritic cells (TUBO tumors [5]; flow cytometry CD45+MHCII+CD11chi, vs control treated tumors and normal mammary tissue): significant increase
- perforin in tumors (TUBO tumors [5]; mouse, in vivo): significant increase in perforin
- naïve T-cell numbers (TUBO tumors [5]; spleen): concomitant decrease
- memory and effector T-cells among CD4 positive T cell populations (TUBO tumors [5]; [12]): robust induction
- memory and effector T-cells among CD8 positive T cell populations (TUBO tumors [5]; [12]): robust induction
- intra-tumor penetration of macrophages (F4/80) (TUBO tumors [5]; tumor sections): increased intra-tumor penetration
- macrophages, positive F4/80 IHC staining (TUBO tumors [5]; tumor sections): 43.3±8.6 % pop.
- Ki-67 protein staining (TUBO tumors [5]; tumor sections, sham 47.7±6.4): 36.7±6.2 %+nuclei
- cleaved caspase 3 (CC3) staining, H (TUBO tumors [5]; tumor sections, sham H=4.9±2.6): 10.7±3.9
- cleaved caspase 3 (CC3) staining (TUBO tumors [5]; [13]): significant increase
- proliferative capacity of tumors via nuclear Ki67 staining (TUBO tumors [5]; [13]): significant reduction in the proliferative capacity
- Granzyme B-positive CD8 T-cells (TUBO tumors [5]; tumors): enriched
- number of intra-tumor T regulatory cells (dual CD25 and FoxP3 expression) (TUBO tumors [5]; tumors): significantly reduced; also recorded: profound decrease
- programmed death ligand-1 (PD-L1) expression in tumor (E0771-E2 tumors; EO771-E2 tumor bearing mice): induces
- protein expression of PD-L1 in tumor-infiltrating dendritic and macrophage cells (E0771-E2 tumors; FIG. 25): significant changes
- improved median survival compared to PD-1 monotherapy (E0771-E2 tumors; SSI-4 monotherapy): ~20%
- improved median survival compared to sham (E0771-E2 tumors; SSI-4 monotherapy): approximately 22%
- effector/cytotoxic CD8+ T lymphocytes in tumor (E0771-E2 tumors; dissociated tumors): increased; also recorded: significant increase
- increase of intratumor infiltration of macrophages (E0771-E2 tumors; flow cytometry, day 27): approximately 8%
- protein expression of checkpoints PD-L1 or PD-L2 in dendritic cells (E0771-E2 tumors; intratumor dendritic cells): No significant changes
- PD-L1 expression on macrophages (E0771-E2 tumors; intratumor macrophages): increased PD-L1; also recorded: strongly induce PD-L1 expression on macrophages
- intratumor population of T regulatory cells (E0771-E2 tumors; mouse, in vivo): deleterious effect
- tumor infiltrating macrophages (E0771-E2 tumors; mouse, in vivo): increased the number of tumor infiltrating macrophages; also recorded: significant influx
- checkpoint protein expression (CTLA-4, TIM3) on CD4 and CD8 positive T lymphocytes (E0771-E2 tumors; tumor-infiltrating T lymphocytes): upregulation of both CTLA-4 and TIM-3
- SSI-4 induced phagocytosis with adjuvant CRT neutralization (TUBO cells [6]; CRT blocking antibody): reversed; also recorded: significantly abrogate
- level of phagocytosis (TUBO cells [6]; SSI-4 1000 nM): 5%
- SSI-4 induced phagocytosis with adjuvant CRT neutralization (E0771-E2 cells [7]; CRT blocking antibody): reversed; also recorded: significantly abrogate
- level of phagocytosis (E0771-E2 cells [7]; SSI-4 1000 nM): 13%
- plasma membrane translocation/expression of calreticulin (CRT) ([8]; 10 nM, flow cytometry on live tumor cells): induces plasma membrane translocation of calreticulin; also recorded: potently upregulates plasma membrane expression of CRT
- plasma membrane translocation of calreticulin ([8]; 10-1000 nM, HER2-positive and TNBC breast cancer cells, significance shown for 1000 nM): induces plasma membrane translocation of calreticulin
- SSI-4 induced phagocytosis with adjuvant CRT neutralization [9]: reversed
- level of phagocytosis ([9]; SSI-4 1000 nM): 12.5%
- activation of ER stress (phosphorylated eIF2α at serine51 and CHOP levels) [10]: activation of ER stress

From patent US11596629B2, “Compounds and methods for treating cancer” (Mayo Foundation for Medical Education and Research, priority 2017, dated 2023)
